From patent US8648066B2 (Exelixis, Inc., priority 2009, dated 2014)

Target: mTOR/GbL/Raptor (mTORC1) (Homo sapiens, UniProt P42345)
Experiment: mTOR/GbL/Raptor (mTORC1) ELISA assay
Assay type: biochemical
Settings: phosphorylation of 4E-BP1; 0.2 nM mTORC1, 10 μM ATP; read-out: IC50 in this assay (mTORC1 ELISA)
Summary of the method: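 ELISA read-out: phospho-4E-BP1 captured on Ni-chelate plates and detected with anti-phospho antibody plus HRP-anti-IgG luminescence. The kinase step ran 120 min at ambient temperature with 0.2 nM human mTORC1, 10 µM ATP, 50 nM His-4E-BP1, 10 mM MnCl2, pH 7.2 HEPES.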

| SMILES | IC50 [nM] |
| --- | --- |
| Cc1ncnc(N2CCOc3ccc(-c4ccc(C(N)=O)cc4)cc3C2)c1Cc1ccc(F)cc1 [Example 170, 4-(4-{5-[(4-fluorophenyl)methyl]-6-methylpyrimidin-4-yl}-2,3,4,5-tetrahydro-1,4-benzoxazepin-7-yl)benzamide] | ≤ 10 |
| COc1cc2ncnc(N3CCOc4ccc(-c5ccc6nc(C)[nH]c6c5)cc4C3)c2cc1Cl [Example 38, 4-[6-chloro-7-(methyloxy)quinazolin-4-yl]-7-(2-methyl-1H-benzimidazol-6-yl)-2,3,4,5-tetrahydro-1,4-benzoxazepine] | 10 to 50 |
| Cc1ncnc(N2CCOc3ccc(-c4ccn5nc(N)nc5c4)cc3C2)c1Cc1ccc(F)cc1 [Example 146, 7-(4-{5-[(4-fluorophenyl)methyl]-6-methylpyrimidin-4-yl}-2,3,4,5-tetrahydro-1,4-benzoxazepin-7-yl)[1,2,4]triazolo[1,5-a]pyridin-2-amine] | 10 to 50 |
| COCC1CCc2c(ncnc2N2CCOc3ccc(-c4cnc5nc(C)[nH]c5c4)cc3C2)C1 (stereo not shown) [Example 567, 7-(2-methyl-1H-imidazo[4,5-b]pyridin-6-yl)-4-{7-[(methyloxy)methyl]-5,6,7,8-tetrahydrquinazolin-4-yl}-2,3,4,5-tetrahydro-1,4-benzoxazepine] | 50 to 250 |
| COc1ccc2c(N3CCOc4ccc(-c5cnc6nc(N)[nH]c6c5)cc4C3)nc(C)nc2c1 [Example 289, 6-{4-[2-methyl-7-(methyloxy)quinazolin-4-yl]-2,3,4,5-tetrahydro-1,4-benzoxazepin-7-yl}-1H-imidazo[4,5-b]pyridin-2-amine] | 10 to 50 |
| CCc1nc2ncc(-c3ccc4c(c3)CN(c3nc(C)nc5c3CC(C)(C)CC5)CCO4)cc2[nH]1 [Example 548, 7-(2-ethyl-1H-imidazo[4,5-b]pyridin-6-yl)-4-(2,6,6-trimethyl-5,6,7,8-tetrahydroquinazolin-4-yl)-2,3,4,5-tetrahydro-1,4-benzoxazepine] | ≤ 10 |
| CC1=Cc2ncnc(N3CCOc4ccc(-c5cnc(N)c(S(=O)(=O)NCC(C)(C)N)c5)cc4C3)c2CC1(C)C [Example 405, 2-amino-N-(2-amino-2-methylpropyl)-5-[4-(6,6,7-trimethyl-5,6-dihydroquinazolin-4-yl)-2,3,4,5-tetrahydro-1,4-benzoxazepin-7-yl]pyridine-3-sulfonamide] | ≤ 10 |
| Cc1nc2ccc(-c3ccc4c(c3)CN(c3ncnc(C)c3Cc3ccccc3C)CCO4)cc2[nH]1 [Example 86, 7-(2-methyl-1H-benzimidazol-6-yl)-4-{6-methyl-5-[(2-methylphenyl)methyl]pyrimidin-4-yl}-2,3,4,5-tetrahydro-1,4-benzoxazepine] | 10 to 50 |
| Cc1nc(Nc2ccccc2)c(C)c(N2CCOc3ccc(-c4cnc5nc[nH]c5c4)cc3C2)n1 [Example 530] | 10 to 50 |
| Cc1nc2ccc(-c3ccc4c(c3)CN(c3ncnc(C)c3Cc3ccc(F)cc3)CCO4)cc2[nH]1 [Example 79, 4-{5-[(4-fluorophenyl)methyl]-6-methylpyrimidin-4-yl}-7-(2-methyl-1H-benzimidazol-6-yl)-2,3,4,5-tetrahydro-1,4-benzoxazepine] | ≤ 10 |
| COC1Cc2nc(CN(C)C)nc(N3CCOc4ccc(-c5ccc6scnc6c5)cc4C3)c2CC1(C)C (stereo not shown) [Example 338, 1-{4-[7-(1,3-benzothiazol-5-yl)-2,3-dihydro-1,4-benzoxazepin-4(5H)-yl]-6,6-dimethyl-7-(methyloxy)-5,6,7,8-tetrahydroquinazolin-2-yl}-N,N-dimethylmethanamine] | ≥ 2000 |
| CCNc1nc2ccc(-c3ccc4c(c3)CN(c3nc(CC)nc5ccccc35)CCO4)cc2[nH]1 [Example 260, N-ethyl-6-[4-(2-ethylquinazolin-4-yl)-2,3,4,5-tetrahydro-1,4-benzoxazepin-7-yl]-1H-benzimidazol-2-amine] | 50 to 250 |
| Cc1nc2ncc(-c3ccc4c(c3)CN(c3nc(CNC(C)C)nc5c3CC(C)(C)CC5)CCO4)cc2[nH]1 [Example 607, N-({6,6-dimethyl-4-[7-(2-methyl-1H-imidazo[4,5-b]pyridin-6-yl)-2,3-dihydro-1,4-benzoxazepin-4(5H)-yl]-5,6,7,8-tetrahydroquinazolin-2-yl}methyl)propan-2-amine] | ≤ 10 |
| Cc1nc2ccc(-c3ccc4c(c3)CN(c3ncnc5c(Cl)cc(Cl)cc35)CCO4)cc2[nH]1 [Example 32, 4-(6,8-dichloroquinazolin-4-yl)-7-(2-methyl-1H-benzimidazol-6-yl)-2,3,4,5-tetrahydro-1,4-benzoxazepine] | 50 to 250 |
| CC1(C)CCc2ncnc(N3CCOc4ccc(-c5ccc(-c6ncc[nH]6)cc5)cc4C3)c2C1 [Example 213, 4-(6,6-dimethyl-5,6,7,8-tetrahydroquinazolin-4-yl)-7-[4-(1H-imidazol-2-yl)phenyl]-2,3,4,5-tetrahydro-1,4-benzoxazepine] | ≤ 10 |
| CN1CC[C@@H](NS(=O)(=O)c2cc(-c3ccc4c(c3)CN(c3ncnc5c3CC(C)(C)CC5)CCO4)cnc2N)C1 [Example 385, 2-amino-5-[4-(6,6-dimethyl-5,6,7,8-tetrahydroquinazolin-4-yl)-2,3,4,5-tetrahydro-1,4-benzoxazepin-7-yl]-N-[(3R)-1-methylpyrrolidin-3-yl]pyridine-3-sulfonamide] | 50 to 250 |

Next, values leading:

| IC50 [nM] | SMILES |
| --- | --- |
| 10 to 50 | CCNc1nc2ccc(-c3ccc4c(c3)CN(c3ccnc5cc(OC)ccc35)CCO4)cc2[nH]1 [Example 291, N-ethyl-6-{4-[7-(methyloxy)quinolin-4-yl]-2,3,4,5-tetrahydro-1,4-benzoxazepin-7-yl}-1H-benzimidazol-2-amine] |
| ≤ 10 | CC1(C)CCc2ncnc(N3CCOc4ccc(-c5cnc(N)c(S(=O)(=O)N6CC(C)(N)C6)c5)cc4C3)c2C1 [Example 439, 3-[(3-amino-3-methylazetidin-1-yl)sulfonyl]-5-[4-(6,6-dimethyl-5,6,7,8-tetrahydroquinazolin-4-yl)-2,3,4,5-tetrahydro-1,4-benzoxazepin-7-yl]pyridin-2-amine] |
| 10 to 50 | Cc1nc2ccc(-c3ccc4c(c3)CN(c3nc(CNC5CC5)nc5c3CC(C)(C)CC5)CCO4)cc2[nH]1 [Example 588, N-({6,6-dimethyl-4-[7-(2-methyl-1H-benzimidazol-6-yl)-2,3-dihydro-1,4-benzoxazepin-4(5H)-yl]-5,6,7,8-tetrahydroquinazolin-2-yl}methyl)cyclopropanamine] |
| 250 to 1000 | COc1ccc2c(N3CCOc4ccc(-c5cnc6sc(N)nc6c5)cc4C3)nc(CN(C)C)nc2c1 [Example 527, 6-(4-{2-[(dimethylamino)methyl]-7-(methyloxy)quinazolin-4-yl}-2,3,4,5-tetrahydro-1,4-benzoxazepin-7-yl)[1,3]thiazolo[5,4-b]pyridin-2-amine] |
| 50 to 250 | CCNC(=O)c1ccc(-c2ccc3c(c2)CN(c2ccnc4ccccc24)CCO3)cc1 [Example 243, N-ethyl-4-(4-quinolin-4-yl-2,3,4,5-tetrahydro-1,4-benzoxazepin-7-yl)benzamide] |
| 50 to 250 | COc1ccc2c(N3CCOc4ccc(-c5ccc(-c6c[nH]cn6)cc5)cc4C3)nc(C)nc2c1 [Example 570, 7-[4-(1H-imidazol-4-yl)phenyl]-4-[2-methyl-7-(methyloxy)quinazolin-4-yl]-2,3,4,5-tetrahydro-1,4-benzoxazepine] |
| 250 to 1000 | COc1ccc(-c2ccc3c(c2)CN(c2nc(CN(C)C)nc4c2CC(C)(C)CC4)CCO3)cc1OC(F)F [Example 649, 1-{4-[7-{3-[(difluoromethyl)oxy]-4-(methyloxy)phenyl}-2,3-dihydro-1,4-benzoxazepin-4(5H)-yl]-6,6-dimethyl-5,6,7,8-tetrahydroquinazolin-2-yl}-N,N-dimethylmethanamine] |
| 250 to 1000 | COc1c(OCC2CC2)ccc2c(N3CCOc4ccc(-c5ccc6nc(C)[nH]c6c5)cc4C3)ncnc12 [Example 168, 4-{7-[(cyclopropylmethyl)oxy]-8-(methyloxy)quinazolin-4-yl}-7-(2-methyl-1H-benzimidazol-6-yl)-2,3,4,5-tetrahydro-1,4-benzoxazepine] |
| 50 to 250 | Cc1nc2cc(-c3ccc4c(c3)CN(c3nc(CN5CCCC5)nc(C)c3C(C)C)CCO4)ccc2[nH]1 [Example 675] |
| 250 to 1000 | Cn1ccc2cc(-c3ccc4c(c3)CN(c3ccnc5ccccc35)CCO4)cnc21 [Example 222] |
| 10 to 50 | CC1(C)CCc2ncnc(N3CCOc4ccc(-c5cnc(N)c(S(=O)(=O)NCCCN)c5)cc4C3)c2C1 [Example 414, 2-amino-N-(3-aminopropyl)-5-[4-(6,6-dimethyl-5,6,7,8-tetrahydroquinazolin-4-yl)-2,3,4,5-tetrahydro-1,4-benzoxazepin-7-yl]pyridine-3-sulfonamide] |
| ≤ 10 | Cc1nc2c(c(N3CCOc4ccc(-c5cnc6nc(C7CC7)[nH]c6c5)cc4C3)n1)CC(C)(C)CC2 [Example 544, 7-(2-cyclopropyl-1H-imidazo[4,5-b]pyridin-6-yl)-4-(2,6,6-trimethyl-5,6,7,8-tetrahydroquinazolin-4-yl)-2,3,4,5-tetrahydro-1,4-benzoxazepine] |
| ≤ 10 | CCNCc1nc2c(c(N3CCOc4ccc(-c5cnc6nc(C)[nH]c6c5)cc4C3)n1)CC(C)(C)CC2 [Example 600, N-({6,6-dimethyl-4-[7-(2-methyl-1H-imidazo[4,5-b]pyridin-6-yl)-2,3-dihydro-1,4-benzoxazepin-4(5H)-yl]-5,6,7,8-tetrahydroquinazolin-2-yl}methyl)ethanamine] |
| 10 to 50 | COc1ccc2c(N3CCOc4ccc(-c5cnc(Cl)c(NS(C)(=O)=O)c5)cc4C3)ncnc2c1 [Example 608, N-(2-chloro-5-{4-[7-(methyloxy)quinazolin-4-yl]-2,3,4,5-tetrahydro-1,4-benzoxazepin-7-yl}pyridin-3-yl)methanesulfonamide] |
| 10 to 50 | CC(C)NS(=O)(=O)c1cc(-c2ccc3c(c2)CN(c2ncnc4c2CC(C)(C)CC4)CCO3)cnc1N [Example 364, 2-amino-5-[4-(6,6-dimethyl-5,6,7,8-tetrahydroquinazolin-4-yl)-2,3,4,5-tetrahydro-1,4-benzoxazepin-7-yl]-N-(1-methylethyl)pyridin-3-sulfonamide] |
